Results: PMC4895354 (2016)

Tests used:
DGCR8Δ = molecular target: T1, DGCR8Δ (UniProt Q8WYQ5); assay: EMSA; settings: 2 mM Mg2+, 2 mM Ca2+; EMSA: 20 mM HEPES pH 7.5, 110 mM KCl, 110 mM NaCl, 0.1% BSA, 2 mM MgCl2, 2 mM CaCl2, 0.05% Tween-20, 5 mM DTT, 15 min, room temperature; native 5% PAGE
T1 sequence: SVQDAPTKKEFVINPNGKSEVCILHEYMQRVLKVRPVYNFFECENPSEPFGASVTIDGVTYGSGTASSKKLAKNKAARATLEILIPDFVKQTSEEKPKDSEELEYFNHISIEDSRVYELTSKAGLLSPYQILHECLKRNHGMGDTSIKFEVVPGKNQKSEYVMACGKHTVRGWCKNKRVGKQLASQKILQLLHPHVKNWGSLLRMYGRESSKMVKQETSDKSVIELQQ

[1] = test system: AAUU (RNA, hairpin) AAUUAAUUAAUUGAAAAAUUAAUUAAUU; assay: fluorescence titration, sigmoidal fit; settings: 185 mM NaCl, 8 mM Na2HPO4, pH 7.0, 0.1 mM EDTA, RNA titrated
[2] = test system: GGCC (RNA, hairpin) GGCCGGCCGAAAGGCCGGCC; assay: fluorescence titration, sigmoidal fit; settings: 185 mM NaCl, 8 mM Na2HPO4, pH 7.0, 0.1 mM EDTA, RNA titrated
[3] = test system: GCGC (RNA, hairpin) GCGCGCGCGAAAGCGCGCGC; assay: fluorescence titration, sigmoidal fit; settings: 185 mM NaCl, 8 mM Na2HPO4, pH 7.0, 0.1 mM EDTA, RNA titrated
[4] = test system: AUAU (RNA, hairpin) AUAUAUAUAUAUGAAAAUAUAUAUAUAU; assay: fluorescence titration, sigmoidal fit; settings: 185 mM NaCl, 8 mM Na2HPO4, pH 7.0, 0.1 mM EDTA, RNA titrated
[5] = test system: r(CGG)12 (RNA, repeat) CGGCGGCGGCGGCGGCGGCGGCGGCGGCGGCGGCGG; assay: fluorescence titration, sigmoidal fit; settings: 185 mM NaCl; 8 mM Na2HPO4, pH 7.0, 0.1 mM EDTA; range over four repeats 36–87 nM
[6] = test system: r(CUG)12 (RNA, repeat) CUGCUGCUGCUGCUGCUGCUGCUGCUGCUGCUGCUG; assay: fluorescence titration, sigmoidal fit; settings: 185 mM NaCl; 8 mM Na2HPO4, pH 7.0, 0.1 mM EDTA; range over four repeats 36–87 nM
[7] = test system: r(CCUG)12 (RNA, repeat) CCUGCCUGCCUGCCUGCCUGCCUGCCUGCCUGCCUGCCUGCCUGCCUG; assay: fluorescence titration, sigmoidal fit; settings: 185 mM NaCl; 8 mM Na2HPO4, pH 7.0, 0.1 mM EDTA; range over four repeats 36–87 nM
[8] = test system: r(AUUCU)11 (RNA, repeat) AUUCUAUUCUAUUCUAUUCUAUUCUAUUCUAUUCUAUUCUAUUCUAUUCUAUUCU; assay: fluorescence titration, sigmoidal fit; settings: 185 mM NaCl, 8 mM Na2HPO4, pH 7.0, 0.1 mM EDTA
[9] = test system: r(AUUCU)11 for TR-FRET (RNA, repeat) AUUCUAUUCUAUUCUAUUCUAUUCUAUUCUAUUCUAUUCUAUUCUAUUCUAUUCU; assay: TR-FRET, inhibition of RNA-protein complex; settings: 110 mM KCl, 110 mM NaCl, 2 mM MgCl2, 2 mM CaCl2, 20 mM HEPES pH 7.5, DGCR8Δ 40 nM displaced, RNA 60 nM
[10] = test system: r(AUUCU)11, 5'-32P labelled (RNA, repeat) AUUCUAUUCUAUUCUAUUCUAUUCUAUUCUAUUCUAUUCUAUUCUAUUCUAUUCU; assay: filter binding (dot blot); settings: PBS, 1 mM MgCl2; pH 7.4; 50 μg/ml BSA; RNA 100 nM, compound 1 μM
[11] = test system: r(AUUCU)11 (RNA, repeat) AUUCUAUUCUAUUCUAUUCUAUUCUAUUCUAUUCUAUUCUAUUCUAUUCUAUUCU; assay: fluorescence titration, lattice (Scatchard-type) fit; settings: 185 mM NaCl, 8 mM Na2HPO4, pH 7.0, 0.1 mM EDTA, microscopic Kd, per site
[12] = test system: AAUU (RNA, hairpin) AAUUAAUUAAUUGAAAAAUUAAUUAAUU; assay: as above; settings: 185 mM NaCl; 8 mM Na2HPO4, pH 7.0, 0.1 mM EDTA; microscopic Kd; per site
[13] = test system: r(AUUCU)11, 5'-32P labelled (RNA, repeat) AUUCUAUUCUAUUCUAUUCUAUUCUAUUCUAUUCUAUUCUAUUCUAUUCUAUUCU; assay: RNase V1 protection; settings: 1× RNA Structure Buffer; compound 0-20 μM; protects each AU pair
[14] = test system: AUAU (RNA, hairpin) AUAUAUAUAUAUGAAAAUAUAUAUAUAU; assay: fluorescence titration, lattice (Scatchard-type) fit; settings: 185 mM NaCl; 8 mM Na2HPO4, pH 7.0, 0.1 mM EDTA; microscopic Kd; per site

Compound: AUUCUAUUCUAUUCUAUUCUAUUCUAUUCUAUUCUAUUCUAUUCUAUUCUAUUCU [r(AUUCU)11]
- Kd (DGCR8Δ): 1600 nM

Compound: N=C(N)c1ccc(-c2ccc(-c3ccccc3)o2)cc1
- EC50 ([1]; 3 μM compound, Hill 3.1±0.79): 170 ± 10 nM
- EC50 ([2]; 3 μM compound, Hill 1.4±0.34): 390 ± 20 nM
- EC50 ([3]; 3 μM compound, Hill 0.92±0.34): 240 ± 10 nM
- EC50 ([4]; 3 μM compound, Hill 1.5±0.32): 45 ± 1 nM
- binding [5]: yes
- binding [6]: yes
- binding [7]: yes
- binding ([8]; range over four repeats 36–87 nM): yes

Compound: CCCN(CC(=O)N(CCC)CC(=O)N(CC(N)=O)Cc1cn(CCCNC(=N)c2ccc(-c3ccc(-c4ccc(C(=N)N)cc4)o3)cc2)nn1)C(=O)CNCc1cn(CCCNC(=N)c2ccc(-c3ccc(-c4ccc(C(=N)N)cc4)o3)cc2)nn1
- binding ([9]; ~70% inhibition at 1.5 μM): yes
- binding [10]: yes
- Kd ([11]; Hill 1.4±0.4): 185 ± 1.0 nM
- EC50 ([8]; without PEG 8000): 146 ± 8 nM

Compound: [N-]=[N+]=NCCCNC(=N)c1ccc(-c2ccc(-c3ccc(C(=N)N)cc3)o2)cc1
- EC50 ([1]; 1 μM compound, Hill 1.0±0.17): 45 ± 6 nM
- binding ([9]; ~25% inhibition at 1.5 μM): yes
- EC50 ([2]; 1 μM compound): > 6,000 nM
- Kd ([11]; Hill 1.3±0.1): 375 ± 34 nM
- EC50 ([3]; 1 μM compound): > 2,000 nM
- EC50 ([4]; 1 μM compound, Hill 1.0±0.13): 31 ± 4 nM

Compound: N=C(N)c1ccc(-c2ccc(-c3ccc(C(=N)N)cc3)o2)cc1
- Kd [12]: 320 nM
- EC50 ([1]; 1 μM compound, Hill 1.5±0.24): 170 ± 40 nM
- binding [13]: yes
- EC50 ([2]; 1 μM compound, Hill 0.85±0.08): 8,550±250 nM
- Kd ([11]; Hill 1.7±0.2): 300 ± 47 nM
- EC50 ([3]; 1 μM compound, Hill 0.77±0.16): 6,950±250 nM
- EC50 ([4]; 1 μM compound, Hill 1.6±0.28): 190 ± 20 nM
- Kd [14]: 210 nM
